This is an account of results in patent US7041440B2, “IP3-binding polypeptides and methods of using them” (Riken, priority 1998, dated 2006).

The conditions of assay [1]: cited from earlier work.
A short description of assay [2]: [3H]IP3-binding activity, Scatchard plot analysis. The method, then:
The IP3-binding activities of these fusion proteins were measured mainly by the method of Yoshikawa et al (1996).
Each fusion protein (IP3 sponge) (0.2 μg) was mixed with 100 μl of binding buffer-α (50 mM Tris-HCl (pH 8.0 at 4° C.), 1 mM EDTA, 1 mM β-mercaptoethanol) that contained 9.6 nM D-myo-[^3H](1,4,5)IP3 (777 GBq/mmol; DuPont NEN) (hereinafter, abbreviated as “[^3H]IP3”) and various concentrations of non-labeled D-myo-(1,4,5)IP3 (Dojindo) (hereinafter, abbreviated as “cold IP3”). The mixture was left to stand on ice for 10 minutes. To the mixture, 4 μl of 50 mg/ml γ-globulin (Sigma) (final concentration: 1 mg/ml) and 100 μl of 30% PEG 6000 (Sigma)/binding buffer-a solution (final concentration: 15%) were added. The resultant mixture was left to stand on ice for 5 minutes, and then centrifuged at 10,000×g at 2° C. for 5 minutes to collect polypeptide/PEG complex. PEG-precipitated [^3H]IP3-binding polypeptide was well solubilized with 180 μl solubilizer Solvable (DuPont NEN). The resultant was neutralized with 18 μl glacial acetic acid and then added to 5 ml liquid scintillation counter (Atomlight [DuPont NEN]) to measure the radioactivity (first radioactivity). Non-specific binding of each protein was determined by measuring the second radioactivity in the presence of 2 μM or 10 μM cold IP3. Then, a specific binding value of each protein was obtained by subtracting the second radioactivity (non-specific binding value) from the first radioactivity values.
Scatchard plot analysis was conducted under the following conditions. For low-affinity polypetides (G224-m30 and control GST), the binding experiment was conducted in 100 μl binding buffer a by adding 9.6 nM [^3H]IP3 (DuPont NEN) and 10–20 nM of cold IP3 to 2 μg of IP3-binding polypeptide, and by adding 9.6 nM [^3H]IP3 (DuPont NEN) and 50 nM-2 μM of cold IP3 to 0.01 μg IP3-binding polypeptide. For high-affinity IP3 sponges (G224 and G224-m49), binding experiment was conducted with 0.02 μg IP3 sponges at [^3H]-IP3 concentrations of 0.15, 0.3, 0.6, 1.2, 2.4, 4.8 and 9.6 nM without adding cold IP3.

Assay [3] addresses T1, IP3 receptor on cerebellar microsome (Mus musculus, UniProt P11881).
T1 construct: Mouse cerebellum is a tissue that is rich in IP3 receptor; from tissue; host or cells: mouse (ddY) cerebellum, microsomal fraction
Description: Inhibition of IP3-induced Ca2+ release (IICR) from cerebellar microsome, fura-2. Type of assay: biochemical. The method, then: To conduct a test of inhibiting IP3-induced Ca^2+ release, a microsomal fraction was prepared from mouse cerebellum as described in Example 3. The fraction was suspended in Buffer B, dispensed, and stored at −80° C. until it was used.
Composition of Buffer B was 110 mM KCl, 10 mM NaCl, 5 mM KH2PO4, 1 mM DDT, and 50 mM HEPES-KOH (pH 7.2) (containing a cocktail of protease inhibitors [0.1 mM PMSF, 10 μM leupeptin, 10 μM pepstatin A, 10 μM E-64] and 2 mM MgCl2).
An IP3-induced Ca^2+ release activity of cerebellar microsome was determined by using fura-2 (Molecular Probe) as a fluorescent Ca^2+ indicator. Specifically, excitations upon addition of IP3 at two wavelengths (340 nm and 380 nm) were measured with fluorescence spectrophotometer CAF110 (Nihon Bunko) to see the change in the fluorescent intensity ratio (F340/F380) at 500 nm.
IP3-induced Ca^2+ release from the cerebellar microsome is generally EC50=100–200 nM IP3. Cerebellar microsome (100 μg) was mixed with 500 μl of a release buffer (Buffer B containing 1 mM MgCl2, 2 μM fura-2, 1 mM DTT, 10 mM creatine phosphate, 40 U/ml creatine kinase, 1 μg/ml oligomycin, and the cocktail of protease inhibitors) in a measurement cuvette with a stirrer bar. The following reaction was conducted at 30° C. while constantly stirring with the stirrer bar.
One mM of ATP was added to the mixture in the cuvette to activate Ca^2+ pumping (Ca^2+-ATPase), whereby Ca^2+ was incorporated into the inner space of microsome (Ca^2+ loading). Ca^2+ loading was confirmed by monitoring until the decrease of fura-2 fluorescent level became constant. The change in the fura-2 fluorescent intensity ratio was measured (F340/F380) at a subthreshold level.
The effect of IP3 sponge on inhibiting IP3-induced Ca^2+ release activity of cerebellar microsome was analyzed as follows. After the addition of ATP, the curve of fura-2 fluorescent intensity was monitored until the decrease became constant. Then, various concentrations of IP3 sponges were added. After 1 min., 50 nM to 1 μM of IP3 was added to the reaction mixture to observe the change of fura-2 fluorescent intensity induced by the IP3.
The IP3 sponge concentration dependency was determined as follows. High affinity polypeptide G224 of 3.125, 6.25, 12.5, 25, 50, 100, 200 μg/ml were added to the reaction mixture, respectively. After about 1 min., 100 nM of IP3 was added to measure the Ca^2+ release activity induced by the IP3. The concentration dependency of low affinity polypeptide G224-m30 was determined by adding G224-m30 of 200, 400 and 500 μg/ml. After about 1 min., 100 nM of IP3 was added to measure the Ca^2+ release activity induced by the IP3. In addition, G224-m30 of 500 μg/ml was also added, and after about 1 min., 50 nM of IP3 was added to measure the Ca^2+ release activity induced by the IP3.

Assay [4] has as its target T2, IP3 receptor of cerebellar microsome (Mus musculus, UniProt P11881).
T2 construct: Mouse cerebellum is a tissue that is rich in IP3 receptor; from tissue; host or cells: mouse (ddY) cerebellum, microsomal fraction
Description: Inhibition of [3H]IP3 binding of cerebellar microsome by IP3 sponges. Conditions: 40 μg cerebellar microsome, 9.6 nM [3H]IP3, 100 μl (FIG. 4). As for the experimental part: The inhibition effects of the IP3-binding polypeptides (IP3 sponges) on [H]IP3-binding activity of cerebellar microsome was analyzed as follows.
A microsomal fraction was prepared from the cerebella of mice ddY (Nippon SLC) mainly by following the method of Nakada et al. (Nakada S. et al., Biochem. J. 277:125–131, 1991). In 100 μl of binding buffer α, various concentrations of the IP3 sponges were added respectively to see the changes in the binding between the cerebellar microsome (40 μg) and 9.6 nM [^3H]-IP3 according to the above method (see Scatchard plot analysis).
Mouse cerebellum is a tissue that is rich in IP3 receptor and whose microsomal fraction has a [^3H]IP3-binding activity which is at least 50 times higher than those in other tissues (Maeda et al., 1990 (supra)). […] It was calculated that, there were about 0.92 pmol of IP3-binding site of cerebellum IP3 receptor and 0.96 pmol of [^3H]IP3 present in the 100 μl solution.

A short description of assay [5]: [3H]IP3-binding activity, Scatchard plot analysis. This is another data set of the same source.
[6] abbreviates: purified protein, [3H]IP3 binding.
Setting [7] is: purified IP3 receptor, Maeda et al. 1990.

Several values for one entry are separate records, joined by “and”; a condition that tells them apart may be missing. Equal entries are not always repeated. Where two headings read alike, the source gives them in different places.

T1 sequence (P11881 whole entry N1264K/P2675L): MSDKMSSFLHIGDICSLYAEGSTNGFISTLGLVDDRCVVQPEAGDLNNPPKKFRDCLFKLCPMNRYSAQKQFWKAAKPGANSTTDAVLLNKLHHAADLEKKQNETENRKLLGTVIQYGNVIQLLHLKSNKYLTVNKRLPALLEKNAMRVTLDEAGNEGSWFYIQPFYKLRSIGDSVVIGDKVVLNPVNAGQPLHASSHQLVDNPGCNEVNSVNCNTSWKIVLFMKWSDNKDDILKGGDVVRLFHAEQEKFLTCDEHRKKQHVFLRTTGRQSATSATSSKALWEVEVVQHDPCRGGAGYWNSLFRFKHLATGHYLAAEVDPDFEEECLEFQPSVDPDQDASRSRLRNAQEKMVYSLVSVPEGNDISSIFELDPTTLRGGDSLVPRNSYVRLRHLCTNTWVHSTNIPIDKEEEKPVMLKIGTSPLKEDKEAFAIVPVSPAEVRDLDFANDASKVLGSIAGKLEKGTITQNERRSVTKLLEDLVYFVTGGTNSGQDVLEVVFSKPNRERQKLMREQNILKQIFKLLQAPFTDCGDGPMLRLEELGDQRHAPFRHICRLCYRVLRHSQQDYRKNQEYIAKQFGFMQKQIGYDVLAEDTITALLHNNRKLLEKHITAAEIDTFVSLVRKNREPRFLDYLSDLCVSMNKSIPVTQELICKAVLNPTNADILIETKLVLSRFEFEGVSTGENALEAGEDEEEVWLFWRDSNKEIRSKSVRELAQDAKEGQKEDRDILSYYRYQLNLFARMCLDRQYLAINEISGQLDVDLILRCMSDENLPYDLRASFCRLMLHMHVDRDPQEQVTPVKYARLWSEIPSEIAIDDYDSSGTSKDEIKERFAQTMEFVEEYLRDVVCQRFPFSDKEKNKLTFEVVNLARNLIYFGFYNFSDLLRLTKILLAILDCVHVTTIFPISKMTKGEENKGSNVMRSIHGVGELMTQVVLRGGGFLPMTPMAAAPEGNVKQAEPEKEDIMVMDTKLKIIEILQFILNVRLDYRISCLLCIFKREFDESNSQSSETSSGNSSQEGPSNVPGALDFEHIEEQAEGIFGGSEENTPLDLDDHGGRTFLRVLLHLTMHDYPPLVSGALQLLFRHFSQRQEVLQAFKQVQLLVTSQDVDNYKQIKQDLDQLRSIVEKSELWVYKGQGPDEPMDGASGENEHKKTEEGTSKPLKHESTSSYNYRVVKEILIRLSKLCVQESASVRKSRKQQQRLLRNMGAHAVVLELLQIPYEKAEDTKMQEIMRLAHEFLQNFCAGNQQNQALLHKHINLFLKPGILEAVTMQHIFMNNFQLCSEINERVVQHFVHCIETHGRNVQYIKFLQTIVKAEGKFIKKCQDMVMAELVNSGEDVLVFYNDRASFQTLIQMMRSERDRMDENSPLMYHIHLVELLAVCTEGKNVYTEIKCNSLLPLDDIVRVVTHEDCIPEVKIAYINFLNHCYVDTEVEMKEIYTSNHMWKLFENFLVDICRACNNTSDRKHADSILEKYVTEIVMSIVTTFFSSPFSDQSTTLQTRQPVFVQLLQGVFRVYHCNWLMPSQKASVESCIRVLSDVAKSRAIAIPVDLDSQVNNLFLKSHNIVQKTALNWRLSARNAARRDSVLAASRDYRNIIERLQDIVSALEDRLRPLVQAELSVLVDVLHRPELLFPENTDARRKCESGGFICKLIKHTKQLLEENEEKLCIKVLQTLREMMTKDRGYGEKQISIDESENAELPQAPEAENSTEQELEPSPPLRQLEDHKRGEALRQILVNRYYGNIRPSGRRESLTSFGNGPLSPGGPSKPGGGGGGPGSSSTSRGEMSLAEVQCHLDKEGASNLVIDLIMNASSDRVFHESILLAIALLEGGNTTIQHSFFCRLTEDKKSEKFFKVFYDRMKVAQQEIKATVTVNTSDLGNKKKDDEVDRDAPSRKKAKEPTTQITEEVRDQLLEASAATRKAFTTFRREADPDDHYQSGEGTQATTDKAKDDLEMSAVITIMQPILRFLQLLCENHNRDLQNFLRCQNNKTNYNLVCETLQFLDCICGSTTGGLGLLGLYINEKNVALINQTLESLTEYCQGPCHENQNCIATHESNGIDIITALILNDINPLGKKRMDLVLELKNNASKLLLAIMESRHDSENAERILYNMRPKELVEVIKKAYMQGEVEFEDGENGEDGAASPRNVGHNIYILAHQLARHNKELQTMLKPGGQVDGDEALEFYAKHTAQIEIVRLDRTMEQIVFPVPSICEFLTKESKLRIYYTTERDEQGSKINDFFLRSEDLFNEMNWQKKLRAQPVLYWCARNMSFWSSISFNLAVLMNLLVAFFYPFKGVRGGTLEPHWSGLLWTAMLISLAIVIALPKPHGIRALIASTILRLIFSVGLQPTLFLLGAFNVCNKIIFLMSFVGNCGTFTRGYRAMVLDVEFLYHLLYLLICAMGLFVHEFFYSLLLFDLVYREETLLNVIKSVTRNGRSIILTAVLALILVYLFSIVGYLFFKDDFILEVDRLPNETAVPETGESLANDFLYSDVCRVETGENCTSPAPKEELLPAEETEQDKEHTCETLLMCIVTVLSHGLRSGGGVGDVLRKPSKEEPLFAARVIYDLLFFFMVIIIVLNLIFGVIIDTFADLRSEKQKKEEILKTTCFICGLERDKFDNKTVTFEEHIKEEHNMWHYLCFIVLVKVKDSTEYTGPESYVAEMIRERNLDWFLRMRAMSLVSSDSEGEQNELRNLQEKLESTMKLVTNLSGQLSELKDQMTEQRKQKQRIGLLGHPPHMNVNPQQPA

As to “Amino acid region 224–579: 356-residue polypeptide almost corresponding to the IP3-binding core region”, the Kd (commonly the concentration at which binding is half-saturated) in assay [1] (Yoshikawa et al. 1996) is 2.3 nM.
As for “G224: fusion polypeptide of GST and amino acids 224–604 (M-224 to K-604) of IP3 receptor”, the “binding to (1,4,5)IP3 and (2,4,5)IP3” value in assay [2] is “binds well”. In assay [2] (purified GST fusion protein (FIG. 3A, 3B)), this substance showed a Kd of 0.083 nM. In assay [2] (purified protein), this substance came in with a Bmax of 1.6 pmol/μg purified protein. In addition, the “affinity, times higher than that of polypeptide T734” value in assay [2] (relative to T734) stood at 500 times. In addition, in assay [3] (100 nM IP3 (FIG. 7)), the “concentration required for 50% inhibition of IP3-induced Ca2+ release” value was “about 20 μg/ml”. Moreover, in assay [3] (100 μg/ml, 100 nM IP3 (FIG. 6F)), the “inhibition of IP3-induced Ca2+ release” value is “almost completely inhibited”. Further, in assay [4], the “IC50 of IP3-binding inhibition” value is listed as “about 10 μg/ml”.
Regarding “G224m30: G224 introduced with K508A mutation; low affinity IP3-binding polypeptide”, the Bmax in assay [2] (purified protein) turned out to be 3.0 pmol/μg purified protein. Further, the dissociation constant Kd in assay [2] (setting [6]) was 330 nM; in assay [2] (purified protein, [3H]IP3 binding, listed as G224-m30), roughly 330 nM. Moreover, the “effect on inhibiting Ca2+ release versus control” value in assay [3] (500 μg/ml, 50 nM IP3) was “Little difference”. Besides, the “inhibiting effect on Ca2+ release” value in assay [3] (500 μg/ml, 100 nM IP3) was “no inhibiting effect”. Besides, in assay [4], the “IC50 of IP3-binding inhibition” value is 100 µg/mL.
For the substance “N4-T604: protein obtained by deleting amino acids 1–223 of T604; amino acids 224–604”, the “activity, times that of the original T604” value in assay [2] (relative to T604) is reported as “about 3 times”.
“Purified IP3R: purified natural IP3 receptor, Maeda et al. 1990”: in assay [1] (setting [7]), the Bmax is on record as 2.1 pmol/μg purified protein and the Kd was 83 nM.
As to “T604: polypeptide of amino acids 1–604 (M-1 to K-604) of mouse Type-1 IP3 receptor”, the Kd is 7.6 nM in assay [2] (setting [6]); 45 ± 7.6 nM in assay [5] (3 μg T604 soluble fraction, 9.6 nM [3H]IP3, cold IP3 competition (FIG. 2C)); 45 nM in assay [5] (crude cell lysate / E. coli soluble fraction, 9.6 nM [3H]IP3 competed with cold IP3). Besides, in assay [5] (E. coli soluble fraction), the Bmax is 690 pmol/mg protein and 690±64 pmol/mg protein.
For the substance “T734: N-terminal 734 amino acids of mouse Type-1 IP3 receptor (mIP3R1)”, in assay [1] (E. coli soluble fraction, Yoshikawa et al. 1996), the Bmax was 46 pmol/mg protein. Further, in assay [1] (crude cell lysates, Yoshikawa et al. 1996), the Kd is 50 ± 2.4 nM.
